# According to US20070218462A1, “Method of Predicting a Benefit of Antioxidant Therapy for Prevention of Cardiovascular Disease in Hiperglycemic Patients” (priority 2003, published 2007):
# “Also recorded” adds a separate entry of the source.
# Columns and labels:
# [1] = system: unselected samples or Diabetic patients; assay: CVD outcomes and Vitamin C supplementation (data not shown); format: in vivo, human
# [2] = system: patients at high risk of cardiovascular events; assay: HOPE study: relative risk of primary CV outcomes with vitamin E or ramipril, by haptoglobin phenotype; format: in vivo, human
# Description: HOPE study and patient characteristics: The Heart Outcomes Prevention Evaluation (HOPE) study was designed to test the hypotheses that two preventive intervention strategies, namely angiotensin-converting enzyme (ACE) inhibition or vitamin E, would improve morbidity and mortality in patients at high risk of cardiovascular events compared with placebo. Patients were included in the study who were considered to be at high risk of future fatal or non-fatal cardiovascular events, by virtue of their age (>55 years), existing or previous cardiovascular disease, or diabetes. Diabetics had at least one other risk factor, either known vascular disease or other factors such as cigarette smoking, high cholesterol or hypertension. Ramipril or placebo was added to concomitant medication, which included, in a substantial proportion of patients, antihypertensive drugs (excluding ACE-I), lipid-lowering agents or aspirin. The HOPE study design and protocols have been previously described in detail (see, for example, The Heart Outcomes Prevention Evaluation Study Investigators NE J Med, 2000; 342:154-60 and […] Angioten Aldost Sys 2000;1:18-20). Briefly, the study population consisted over 9,451 patients at high risk of CVD (3,654 DM). […] Patients were followed for a mean of 4.5 years. The primary study outcome was the composite of non-fatal MI, stroke or cardiovascular death. For samples from the HOPE Study, haptoglobin phenotyping was performed from 10 ul of plasma by polyacrylamide gel electrophoresis according to established methods (Hochberg I et al Atherosclerosis 2002;161:441-446). A signature banding pattern is obtained from individuals who are homozygous for the 1 allele (Hp 1-1), homozygous for the 2 allele (Hp 2-2) or who are heterozygous at the haptoglobin locus (Hp 2-1). We have established 100% concordance between the haptoglobin phenotype as determined from plasma and the haptoglobin genotype as determined from genomic DNA by the polymerase chain reaction (Koch W, et al Clin Chem 2002; 277:13635-40). An unambiguous haptoglobin phenotype was obtained on greater than 99.6% of all samples assayed. Haptoglobin phenotyping was performed with no knowledge of the patients clinical or treatment status. All analyses of the HOPE Study data were carried out using SAS 6.02. Baseline characteristics of patients according to haptoglobin were compared by t tests or χ^2 tests as appropriate. […] Patient characteristics of HOPE samples undergoing haptoglobin phenotyping: Haptoglobin phenotype was obtained on 3176 patients (1078 diabetics) from the origianl HOPE cohort for whom plasma was originally archived. These patients represented a randomly selected consecutive series of cohort according to CVD risk factors and treatment regimen is shown in Table 4 below.
# [3] = system: patients at high risk of cardiovascular events; settings: daily administration of 400 IU for 4.5 years; original HOPE study report; cited from earlier work
# [4] = All patients, Hp 1-1, with vitamin E vs without vitamin E
# [5] = All patients, Hp 2-1, with vitamin E vs without vitamin E
# [6] = All patients, Hp 2-2, with vitamin E vs without vitamin E
# [7] = DM Patients only, Hp 1-1, with vitamin E vs without vitamin E
# [8] = DM Patients only, Hp 2-1, with vitamin E vs without vitamin E
# [9] = DM Patients only, Hp 2-2, with vitamin E vs without vitamin E
# [10] = entire sample, regardless of haptoglobin type
# [11] = All patients, Hp 1-1, with ramipril vs without ramipril
# [12] = All patients, Hp 2-1, with ramipril vs without ramipril
# [13] = All patients, Hp 2-2, with ramipril vs without ramipril
# [14] = DM Patients only, Hp 1-1, with ramipril vs without ramipril
# [15] = DM Patients only, Hp 2-1, with ramipril vs without ramipril
# [16] = DM Patients only, Hp 2-2, with ramipril vs without ramipril
structure (smiles),measurement,setting,value
O=C1O[C@H]([C@@H](O)CO)C(O)=C1O [Vitamin C],correlation between CVD outcomes and Vitamin C supplementation,[1],no correlation could be found
"CC(=O)Oc1c(C)c(C)c2c(c1C)CC[C@@](C)(CCC[C@H](C)CCC[C@H](C)CCCC(C)C)O2 [Vitamin E, RRR-a-tocophorol acetate]","Relative Risk Ratio, CV death (95% CI)",[2]; [4],1.10 (0.56-2.12)
same,"Relative Risk Ratio, MI (95% CI)",[2]; [4],0.79 (0.47-1.33)
same,"Relative Risk Ratio, Primary (95% CI)",[2]; [4],0.97 (0.63-1.50)
same,"Relative Risk Ratio, Stroke (95% CI)",[2]; [4],1.50 (0.56-4.04)
same,"Relative Risk Ratio, CV death (95% CI)",[2]; [5],1.07 (0.69-1.64)
same,"Relative Risk Ratio, MI (95% CI)",[2]; [5],1.02 (0.75-1.38)
same,"Relative Risk Ratio, Primary (95% CI)",[2]; [5],0.96 (0.74-1.25)
same,"Relative Risk Ratio, Stroke (95% CI)",[2]; [5],0.92 (0.53-1.60)
same,"Relative Risk Ratio, CV death (95% CI)",[2]; [6],0.75 (0.48-1.16)
same,"Relative Risk Ratio, MI (95% CI)",[2]; [6],0.94 (0.68-1.30)
same,"Relative Risk Ratio, Primary (95% CI)",[2]; [6],0.92 (0.69-1.22)
same,"Relative Risk Ratio, Stroke (95% CI)",[2]; [6],0.85 (0.46-1.57)
same,"Relative Risk Ratio, CV death (95% CI)",[2]; [7],0.64 (0.21-1.92)
same,"Relative Risk Ratio, MI (95% CI)",[2]; [7],0.83 (0.33-2.06)
same,"Relative Risk Ratio, Primary (95% CI)",[2]; [7],0.84 (0.40-1.79)
same,"Relative Risk Ratio, Stroke (95% CI)",[2]; [7],2.24 (0.41-12.4)
same,"Relative Risk Ratio, CV death (95% CI)",[2]; [8],1.0 (0.53-1.93)
same,"Relative Risk Ratio, MI (95% CI)",[2]; [8],0.99 (0.45-2.18)
same,"Relative Risk Ratio, Primary (95% CI)",[2]; [8],1.08 (0.72-1.61)
same,"Relative Risk Ratio, Stroke (95% CI)",[2]; [8],0.99 (0.45-2.18)
same,"Relative Risk Ratio, CV death (95% CI)",[2]; [9],0.45 (0.23-0.90)
same,"Relative Risk Ratio, MI (95% CI)",[2]; [9],0.57 (0.33-0.97)
same,"Relative Risk Ratio, Primary (95% CI)",[2]; [9],0.70 (0.45-1.10)
same,"Relative Risk Ratio, Stroke (95% CI)",[2]; [9],1.15 (0.47-2.82)
same,benefit of vitamin E therapy for any of the primary CV outcomes,"[2]; DM patients, other haptoglobin phenotypes (Hp 1-1 and Hp 2-1)",no significant benefit
same,benefit of vitamin E supplementation for any of the primary CV outcomes,[2]; [10],no significant benefit
same,benefit of vitamin E supplementation,[2]; unselected DM group,no significant benefit; also recorded: no apparent benefit
same,clinical benefit on cardiovascular (CV) outcomes,[3],failed to demonstrate any clinical benefit
"CCOC(=O)[C@H](CCc1ccccc1)N[C@@H](C)C(=O)N1[C@H](C(=O)O)C[C@@H]2CCC[C@@H]21 [Ramipril, ramipril]","Relative Risk Ratio, CV death (95% CI)",[2]; [11],0.58 (0.29-1.18)
same,"Relative Risk Ratio, MI (95% CI)",[2]; [11],0.61 (0.35-1.06)
same,"Relative Risk Ratio, Primary (95% CI)",[2]; [11],0.74 (0.47-1.17)
same,"Relative Risk Ratio, Stroke (95% CI)",[2]; [11],0.91 (0.33-2.51)
same,"Relative Risk Ratio, CV death (95% CI)",[2]; [12],1.02 (0.66-1.58)
same,"Relative Risk Ratio, MI (95% CI)",[2]; [12],0.88 (0.64-1.20)
same,"Relative Risk Ratio, Primary (95% CI)",[2]; [12],0.81 (0.62-1.07)
same,"Relative Risk Ratio, Stroke (95% CI)",[2]; [12],0.68 (0.38-1.21)
same,"Relative Risk Ratio, CV death (95% CI)",[2]; [13],0.87 (0.55-1.37)
same,"Relative Risk Ratio, MI (95% CI)",[2]; [13],0.83 (0.59-1.17)
same,"Relative Risk Ratio, Primary (95% CI)",[2]; [13],0.76 (0.57-1.02)
same,"Relative Risk Ratio, Stroke (95% CI)",[2]; [13],0.53 (0.27-1.04)
same,"Relative Risk Ratio, CV death (95% CI)",[2]; [14],0.42 (0.13-1.36)
same,"Relative Risk Ratio, MI (95% CI)",[2]; [14],0.53 (0.19-1.46)
same,"Relative Risk Ratio, Primary (95% CI)",[2]; [14],0.78 (0.35-1.75)
same,"Relative Risk Ratio, Stroke (95% CI)",[2]; [14],1.29 (0.21-7.82)
same,"Relative Risk Ratio, CV death (95% CI)",[2]; [15],0.97 (0.50-1.88)
same,"Relative Risk Ratio, MI (95% CI)",[2]; [15],0.99 (0.81-2.13)
same,"Relative Risk Ratio, Primary (95% CI)",[2]; [15],0.97 (0.72-1.61)
same,"Relative Risk Ratio, Stroke (95% CI)",[2]; [15],0.58 (0.25-1.34)
same,"Relative Risk Ratio, CV death (95% CI)",[2]; [16],0.56 (0.28-1.12)
same,"Relative Risk Ratio, MI (95% CI)",[2]; [16],0.57 (0.38-1.12)
same,"Relative Risk Ratio, Primary (95% CI)",[2]; [16],0.57 (0.36-0.90)
same,"Relative Risk Ratio, Stroke (95% CI)",[2]; [16],0.42 (0.16-1.09)
same,benefit of ramipril supplementation for any of the primary CV outcomes,[2]; [10],no significant benefit
same,benefit to ramipril for any of the primary CV outcomes,"[2]; other haptoglobin phenotypes (Hp 1-1, Hp 1-2)",no benefit
same,benefit of ramipril supplementation,[2]; unselected DM group,no significant benefit
